In general, IC50 refers to the concentration that gives 50% inhibition.

We go through one compound from ChEMBL document CHEMBL4373747 (ACS Med Chem Lett, 2020).

Molecules are shown by their SMILES. Where only a bound is given, the exact number is not on record here.

Assay [1] has as its target Histone deacetylase 4 (Homo sapiens, UniProt P56524). As to the kind of experiment: Inhibition of recombinant full length human HDAC4 expressed in baculovirus infected Sf9 cells using FAM-RHKK-TFAc as substrate incubated for 1.5 hrs by electrophoretic mobility shift assay. (In general: Mobility shift assays separate free from complexed probe on a gel.)
In assay [2] the target is T1, Polyamine deacetylase HDAC10 (Homo sapiens, UniProt Q969S8).
T1 sequence (Q969S8 whole entry): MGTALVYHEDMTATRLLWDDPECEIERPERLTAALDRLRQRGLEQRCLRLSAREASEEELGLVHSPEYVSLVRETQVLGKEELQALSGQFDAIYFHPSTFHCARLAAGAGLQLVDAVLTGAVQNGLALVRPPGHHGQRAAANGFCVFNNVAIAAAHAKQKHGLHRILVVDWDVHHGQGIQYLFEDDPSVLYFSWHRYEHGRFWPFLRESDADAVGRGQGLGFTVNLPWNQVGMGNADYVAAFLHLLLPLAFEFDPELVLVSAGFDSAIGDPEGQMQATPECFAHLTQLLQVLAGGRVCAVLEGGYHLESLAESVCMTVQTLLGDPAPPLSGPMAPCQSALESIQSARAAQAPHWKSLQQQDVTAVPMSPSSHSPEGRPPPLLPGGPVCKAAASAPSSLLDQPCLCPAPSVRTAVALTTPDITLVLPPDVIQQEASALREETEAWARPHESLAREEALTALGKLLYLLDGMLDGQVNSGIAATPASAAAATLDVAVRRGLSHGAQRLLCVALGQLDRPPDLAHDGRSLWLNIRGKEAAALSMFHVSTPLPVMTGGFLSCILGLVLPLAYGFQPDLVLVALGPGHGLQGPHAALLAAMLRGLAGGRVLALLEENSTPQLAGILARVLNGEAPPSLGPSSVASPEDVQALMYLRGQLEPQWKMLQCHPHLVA
Description: Inhibition of recombinant full length human HDAC10 expressed in baculovirus infected Sf9 cells using FAM-RHKK-Ac as substrate incubated for 17 hrs by electrophoretic mobility shift assay.

In assay [3] the test system is MV4-11. As to the kind of experiment: Induction of apoptosis in human MV4-11 cells assessed as early apoptotic cells at 2 uM incubated for 18 hrs by annexin V FITC and PI based flow cytometry (reference value: 19.46 to 22.17 %). Type of assay: functional.
Assay [4] concerns MV4-11. Description: Induction of apoptosis in human MV4-11 cells assessed as late apoptotic cells at 0.25 uM incubated for 18 hrs by annexin V FITC and PI based flow cytometry (reference value: 9.2 to 9.63 %). It is filed as functional. In general terms: Flow cytometry measures light scatter and fluorescence of single cells or particles in a stream.
For assay [5], the system named is MV4-11. As to the kind of experiment: Induction of apoptosis in human MV4-11 cells assessed as viable cells at 0.25 uM incubated for 18 hrs by annexin V FITC and PI based flow cytometry (reference value: 53.01 to 53.07 %). It is filed as functional. To be noted: Homo sapiens, MV4-11, 18 h; read-out: Activity.
The subject of assay [6] is MV4-11. As to the kind of experiment: Induction of apoptosis in human MV4-11 cells assessed as early apoptotic cells at 0.25 uM incubated for 18 hrs by annexin V FITC and PI based flow cytometry (reference value: 19.46 to 22.17 %). Type of assay: functional.
The test system of assay [7] is MV4-11. Description: Induction of apoptosis in human MV4-11 cells assessed as late apoptotic cells at 2 uM incubated for 18 hrs by annexin V FITC and PI based flow cytometry (reference value: 9.2 to 9.63 %). It is filed as functional.
In assay [8] the test system is HeLa. As to the kind of experiment: Cytotoxicity against human HeLa cells assessed as reduction in cell viability incubated for 72 hrs by cell-titer blue assay. Type of assay: functional, cell-based.
For assay [9], the target named is T2, Protein deacetylase HDAC6 (Homo sapiens) (UniProt Q9UBN7).
T2 sequence (whole entry): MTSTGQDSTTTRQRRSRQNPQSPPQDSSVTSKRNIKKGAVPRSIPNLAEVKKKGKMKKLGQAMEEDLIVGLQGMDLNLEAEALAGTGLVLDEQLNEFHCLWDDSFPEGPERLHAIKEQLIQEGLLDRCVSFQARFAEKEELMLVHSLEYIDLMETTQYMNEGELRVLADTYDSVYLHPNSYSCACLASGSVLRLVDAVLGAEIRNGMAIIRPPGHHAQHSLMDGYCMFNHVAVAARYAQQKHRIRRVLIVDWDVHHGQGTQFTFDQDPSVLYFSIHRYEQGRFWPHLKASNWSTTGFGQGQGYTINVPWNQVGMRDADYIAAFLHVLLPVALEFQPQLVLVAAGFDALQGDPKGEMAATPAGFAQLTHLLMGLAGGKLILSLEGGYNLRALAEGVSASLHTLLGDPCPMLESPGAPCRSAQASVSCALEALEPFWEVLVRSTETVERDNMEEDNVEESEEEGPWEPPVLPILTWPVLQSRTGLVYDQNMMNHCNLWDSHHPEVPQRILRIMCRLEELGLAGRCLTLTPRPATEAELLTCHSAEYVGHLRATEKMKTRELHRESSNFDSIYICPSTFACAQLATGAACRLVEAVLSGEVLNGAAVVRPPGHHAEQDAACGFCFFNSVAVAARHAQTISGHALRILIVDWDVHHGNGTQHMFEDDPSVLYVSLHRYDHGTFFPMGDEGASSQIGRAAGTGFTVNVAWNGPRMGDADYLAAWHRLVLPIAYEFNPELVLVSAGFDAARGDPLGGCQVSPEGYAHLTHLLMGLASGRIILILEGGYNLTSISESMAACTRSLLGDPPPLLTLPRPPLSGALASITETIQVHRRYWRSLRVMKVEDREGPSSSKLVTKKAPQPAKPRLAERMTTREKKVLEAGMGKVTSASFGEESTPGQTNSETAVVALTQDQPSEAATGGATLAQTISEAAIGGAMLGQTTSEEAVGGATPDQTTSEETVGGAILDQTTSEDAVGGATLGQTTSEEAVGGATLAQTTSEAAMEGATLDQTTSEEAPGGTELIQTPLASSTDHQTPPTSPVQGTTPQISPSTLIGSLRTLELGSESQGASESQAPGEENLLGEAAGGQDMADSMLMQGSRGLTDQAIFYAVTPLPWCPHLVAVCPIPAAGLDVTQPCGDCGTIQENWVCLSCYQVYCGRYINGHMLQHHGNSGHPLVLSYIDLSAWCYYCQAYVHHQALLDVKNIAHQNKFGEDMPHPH
Description: Inhibition of HDAC6 in human MV4-11 cells assessed as increase in acetylated alpha-tubulin incubated for 6 hrs by Western blot analysis. It is filed as cell-based.

Sequence of Histone deacetylase 4 (P56524 whole entry): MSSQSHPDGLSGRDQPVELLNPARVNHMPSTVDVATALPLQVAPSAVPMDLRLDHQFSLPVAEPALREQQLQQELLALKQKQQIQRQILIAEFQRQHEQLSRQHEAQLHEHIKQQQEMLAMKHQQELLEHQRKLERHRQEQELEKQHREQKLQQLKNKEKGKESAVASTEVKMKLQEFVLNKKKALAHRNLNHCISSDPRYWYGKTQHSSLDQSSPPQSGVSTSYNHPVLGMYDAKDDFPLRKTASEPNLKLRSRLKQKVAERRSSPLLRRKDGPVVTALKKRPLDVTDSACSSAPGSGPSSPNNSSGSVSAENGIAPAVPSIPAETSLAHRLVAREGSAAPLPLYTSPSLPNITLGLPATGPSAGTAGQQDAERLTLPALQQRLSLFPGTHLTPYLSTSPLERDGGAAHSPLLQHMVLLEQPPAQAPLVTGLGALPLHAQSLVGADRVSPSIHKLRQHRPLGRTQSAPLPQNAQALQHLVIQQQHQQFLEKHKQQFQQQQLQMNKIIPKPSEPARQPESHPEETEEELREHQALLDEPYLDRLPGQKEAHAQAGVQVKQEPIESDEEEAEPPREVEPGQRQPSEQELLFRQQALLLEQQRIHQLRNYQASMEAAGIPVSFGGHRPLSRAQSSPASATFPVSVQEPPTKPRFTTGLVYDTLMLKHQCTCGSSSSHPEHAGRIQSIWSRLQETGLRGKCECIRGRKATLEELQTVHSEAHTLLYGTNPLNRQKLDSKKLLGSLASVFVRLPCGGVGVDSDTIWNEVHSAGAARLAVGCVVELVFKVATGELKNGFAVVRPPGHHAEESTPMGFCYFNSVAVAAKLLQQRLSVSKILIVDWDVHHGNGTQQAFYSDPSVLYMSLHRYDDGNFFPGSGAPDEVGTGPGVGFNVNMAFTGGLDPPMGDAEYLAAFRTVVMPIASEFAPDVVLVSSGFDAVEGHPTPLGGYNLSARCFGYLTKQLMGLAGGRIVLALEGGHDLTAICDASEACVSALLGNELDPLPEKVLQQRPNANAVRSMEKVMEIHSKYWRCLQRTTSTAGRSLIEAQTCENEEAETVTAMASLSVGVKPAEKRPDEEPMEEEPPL

Take `CC(C)(C)c1ccc(C(=O)Nc2ccc(C(=O)NO)cc2)cc1`: the values for the IC50 in assay [1], in assay [2] and in [8] were > 1000 nM, 899 nM and 2530 nM, respectively. Besides, the Activity turned out to be 27.83% in assay [3], 8.74% in assay [4], 17.82% in [6] and 30.97% in assay [7]. Moreover, the viability at 0.25 µM in [5] was 57.5%. In addition, the inhibition result in [9] was “Dose-dependent effect”.
